The values that follow come from patent publication EP4786466A1, “QUINAZOLINE DERIVATIVE, SALT THEREOF, AND PHARMACEUTICAL COMPOSITION COMPRISING SAME AS ACTIVE INGREDIENT” (Korea Research Institute of Chemical Technology, priority 2023, dated 2025).

The target in data set [1] is T1, Recombinant GST-TAG-MASTL (Homo sapiens, UniProt Q96GX5).
T1 construct: GST; purchased Thermo Fisher Scientific
T1 sequence (Q96GX5 1-879): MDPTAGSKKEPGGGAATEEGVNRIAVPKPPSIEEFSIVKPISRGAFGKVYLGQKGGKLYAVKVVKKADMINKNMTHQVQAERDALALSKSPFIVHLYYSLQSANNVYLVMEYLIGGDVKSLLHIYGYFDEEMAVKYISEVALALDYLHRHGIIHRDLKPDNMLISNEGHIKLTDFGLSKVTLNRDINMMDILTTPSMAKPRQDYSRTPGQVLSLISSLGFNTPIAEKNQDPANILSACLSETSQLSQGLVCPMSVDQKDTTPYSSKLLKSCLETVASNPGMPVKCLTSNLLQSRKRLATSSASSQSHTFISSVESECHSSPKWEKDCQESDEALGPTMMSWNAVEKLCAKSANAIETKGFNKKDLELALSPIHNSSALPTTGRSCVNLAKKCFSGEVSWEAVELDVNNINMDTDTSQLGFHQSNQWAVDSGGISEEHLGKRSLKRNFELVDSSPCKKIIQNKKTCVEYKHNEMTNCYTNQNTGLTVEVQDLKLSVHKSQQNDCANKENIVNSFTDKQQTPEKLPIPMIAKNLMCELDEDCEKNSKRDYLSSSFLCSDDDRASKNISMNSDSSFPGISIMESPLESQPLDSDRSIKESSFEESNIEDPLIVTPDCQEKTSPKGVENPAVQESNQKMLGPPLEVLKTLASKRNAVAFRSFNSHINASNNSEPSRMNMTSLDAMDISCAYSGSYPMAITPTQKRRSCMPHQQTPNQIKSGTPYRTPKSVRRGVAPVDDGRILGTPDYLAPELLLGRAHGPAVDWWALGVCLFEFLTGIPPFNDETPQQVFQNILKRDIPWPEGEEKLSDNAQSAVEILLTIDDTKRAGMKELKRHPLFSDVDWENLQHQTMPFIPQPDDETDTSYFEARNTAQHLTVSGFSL
Put plainly: HTRF-based kinase assay (HTRF KinEASE assay kit). The class given is biochemical. The conditions noted are these: for activity at 1 µM: read-out: MASTL activity (%) HTRF (1 µM); for IC50: HTRF, read-out: IC50(nM) MASTL activity. An excerpt: Recombinant GST-TAG-MASTL (Thermo Fisher Scientific, MA, USA) was used for HTRF-based kinase assays. The HTRF KinEASE assay kit (CisBio, MA, USA) was used according to the manufacturer's instructions.

The test system of data set [2] is pENSA. The data set can be described thus: pENSA level by immunofluorescence (described method: in vitro kinase analysis with GST-tag-MASTL and His-tag-ENSA). It is filed as cell-based. The conditions noted are these: for pENSA (%) Immunofluor ecense (1 µM): compound 1 µM; for IC50: read-out: IC50(nM) pENSA. In a few lines: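 In vitro kinase reaction using recombinant GST-tagged MASTL with His-tagged ENSA as substrate; phosphorylated ENSA (pENSA) serves as read-out of MASTL activity. Cell lines named: MCF7 breast cancer and MCF10A.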

The nature of data set [3]: in vitro. As to conditions: human, mcf10a cells.
Method: (§1) MCF7 breast cancer cell lines and MCF10A normal breast cancer cell lines were treated with serial dilutions of the compounds of the present invention ranging from 1 µM to 15.63 nM for 72 hours. Cell viability was measured by the WST-8 assay (Cyto XTM cell viability assay kit; LPS solution, Daejeon, Korea) according to the manufacturer's instructions.
Data set [4] deals with MCF7 breast cancer cell lines. Put plainly: Cell viability analysis, WST-8 assay, MCF7. The conditions noted are these: for viability at 1 µM: read-out: Cell viability (%) WST-8, MCF7 (1 µM), compound 1 µM, 72 hours. (In general: Tetrazolium dyes change colour on reduction, which living cells bring about.)
Method: as §1

Read-outs that look alike come from different tables or passages of the source.

With `CC(C)C(=O)N1CC2CC1CN2c1nc(Nc2cn[nH]c2)c2ccccc2n1` (centres unmarked) [compound 28c, 1-(5-(4-((1G-pyrazol-4-yl)amino)quinazolin-2-yl)-2,5-diazabicyclo[2.2.1]heptan-2-yl)-2-methylpropan-1-one], the activity at 1 µM in data set [1] (compound 1 µM) came out at 117%. Further, the “pENSA (%) Immunofluor ecense (1 µM)” value in data set [2] came out at 80.0%. The viability at 1 µM came to 85.3% in data set [3] and 105% in data set [4] (Homo sapiens, MCF7, 72 h).
Consider `Fc1ccccc1C1=CCN(c2nc(Nc3cc(C4CC4)[nH]n3)c3ccccc3n2)CC1` [compound 6k, M-(5-cyclopropyl-1G-pyrazol-3-yl)-2-(4-(2-fluorophenyl)-3,6-dihydropyridin-1(2G)-yl)quinazolin-4-amine], for which, in data set [1], the IC50 was 406 nM. For the same compound, in data set [1] (compound 1 µM), the activity at 1 µM worked out at 40.6%. For the same compound, the “pENSA (%) Immunofluor ecense (1 µM)” value in data set [2] was determined as 82%. Besides, the viability at 1 µM came to 90.8% in data set [3] and 91% in data set [4] (Homo sapiens, MCF7, 72 h).
Regarding `c1ccc(CN2CC3CC2CN3c2nc(Nc3cn[nH]c3)c3ccccc3n2)cc1` (centres unmarked) [compound 28f, 2-(5-benzyl-2,5-diazabicyclo[2.2.1]heptan-2-yl)-M-(1G-pyrazol-4-yl)quinazolin-4-amine], the activity at 1 µM in data set [1] (compound 1 µM) came to 118%. Moreover, the “pENSA (%) Immunofluor ecense (1 µM)” value in data set [2] stood at 85.1%. Further, the viability at 1 µM in data set [3] came out at 101%; in data set [4] (Homo sapiens, MCF7, 72 h), 110%.
Taken in the same sequence, the figures for `CN(C)S(=O)(=O)c1ccc(Nc2nc(Nc3ccc(C#N)cc3)nc3ccccc23)cc1` [compound 25b, 4-((2-((4-cyanophenyl)amino)quinazolin-4-yl)amino)-M,M-dimethylbenzenesulfonamide] were 91.6%, 102%, 58.1% and 86.4%.
Taken in the same sequence, the figures for `CC(C)(C)OC(=O)Cc1ccc(Nc2nc(Nc3cc(C4CC4)[nH]n3)c3ccccc3n2)cc1` [compound 4q, sdqs-butyl 2-(4-((4-((5-cyclopropyl-1G-pyrazol-3-yl)amino)quinazolin-2-yl)amino)phenyl)acetate] were 76.1%, 53.6%, 98.8% and 107%.
For `CCc1ccccc1C1=CCN(c2nc(Nc3cc(C4CC4)[nH]n3)c3ccccc3n2)CC1` [compound 6m, M-(5-cyclopropyl-1G-pyrazol-3-yl)-2-(4-(2-ethylphenyl)-3,6-dihydropyridin-1(2G)-yl)quinazolin-4-amine] the same measures were 51.8%, 97.1%, 115% and 65.7%.
In the case of `Fc1cc(Br)ccc1Nc1nc(Nc2cc(C3CC3)[nH]n2)c2ccccc2n1` [compound 4c, M^2-(4-bromo-2-fluorophenyl)-M^4-(5-cyclopropyl-1G-pyrazol-3-yl)quinazoline-2,4-diamine], the activity at 1 µM in data set [1] (compound 1 µM) was found to be 47.1%. In addition, in data set [2], the “pENSA (%) Immunofluor ecense (1 µM)” value is 69% and the IC50 stood at 850 nM. Further, the viability at 1 µM in data set [3] was found to be 83.3%. Moreover, in data set [4] (Homo sapiens, MCF7, 72 h), the viability at 1 µM was 50.8%.
As to `O=C(c1ccccc1)N1CC2CC1CN2c1nc(Nc2cc(C3CC3)[nH]n2)c2ccccc2n1` (centres unmarked) [compound 15e, (5-(4-((5-cyclopropyl-1G-pyrazol-3-yl)amino)quinazolin-2-yl)-2,5-diazabicyclo[2.2.1]heptan-2-yl)(phenyl)methanone], the activity at 1 µM in data set [1] (compound 1 µM) worked out at 80%. Further, the “pENSA (%) Immunofluor ecense (1 µM)” value in data set [2] was found to be 48.2%. Further, the viability at 1 µM in data set [3] is 31.3%; in data set [4] (Homo sapiens, MCF7, 72 h) it was 68.3%.
Turning to `O=C(c1ccccc1)N1CC=C(c2nc(Nc3cc(C4CC4)[nH]n3)c3ccccc3n2)CC1` [compound 9a, (4-(4-((5-cyclopropyl-1G-pyrazol-3-yl)amino)quinazolin-2-yl)-3,6-dihydropyridin-1(2G)-yl)(phenyl)methanone], the IC50 in data set [1] is 203 nM. Also, the activity at 1 µM in data set [1] (compound 1 µM) was 45.5%. Besides, in data set [2], the “pENSA (%) Immunofluor ecense (1 µM)” value is reported as 50.5%. Further, the viability at 1 µM was 49.7% in data set [3] and 63.8% in data set [4] (Homo sapiens, MCF7, 72 h).
Consider `C1=C(c2cccc3ccccc23)CCN(c2nc(Nc3cc(C4CC4)[nH]n3)c3ccccc3n2)C1` [compound 6i, M-(5-cyclopropyl-1G-pyrazol-3-yl)-2-(4-(naphthalen-1-yl)-3,6-dihydropyridin-1(2G)-yl)quinazolin-4-amine], for which the activity at 1 µM in data set [1] (compound 1 µM) worked out at 74.6%. The “pENSA (%) Immunofluor ecense (1 µM)” value in data set [2] is 97.2%. In addition, the viability at 1 µM in data set [3] is 122%; in data set [4] (Homo sapiens, MCF7, 72 h) it was 113%.
As for `CN(C)S(=O)(=O)c1ccc(Nc2nc(Nc3cc(C4CC4)[nH]n3)c3ccccc3n2)cc1` [compound 4j, 4-((4-((5-cyclopropyl-1G-pyrazol-3-yl)amino)quinazolin-2-yl)amino)-M,M-dimethylbenzenesulfonamide], the IC50 in data set [1] came to 527 nM; in data set [2], 420 nM; in data set [4] (Homo sapiens, MCF7, 72 h, read-out: IC50(nM) Cell viability (MCF7)), 713 nM. Further, the activity at 1.25 µM in data set [1] (footnote a: concentration 1.25 µM, read-out: MASTL activity (%) HTRF) turned out to be 27%. Moreover, the “pENSA (%) Immunofluor ecense (1 µM)” value in data set [2] is 5.2%. Also, the viability at 1.25 µM in data set [3] was determined as 21.6%; in data set [4] (Homo sapiens, MCF7, 72 h, read-out: Cell viability (%) WST-8, MCF7, footnote a: concentration 1.25 µM, 72 hours), 22.8%. For the same compound, the “selectivity for breast cancer cells over normal cells in the cell viability assay” value in data set [4] (MCF7 versus MCF10A) was “selectively inhibit only breast cancer cells”.
On to `CN(C)S(=O)(=O)c1ccc(Nc2nc(Nc3ccc(CC#N)cc3)nc3ccccc23)cc1` [compound 25a, 4-((2-((4-(cyanomethyl)phenyl)amino)quinazolin-4-yl)amino)-M,M-dimethylbenzenesulfonamide], for which, in data set [1] (compound 1 µM), the activity at 1 µM was determined as 114%. Besides, the “pENSA (%) Immunofluor ecense (1 µM)” value in data set [2] is reported as 91.2%. Also, the viability at 1 µM in data set [3] was 71.6%; in data set [4] (Homo sapiens, MCF7, 72 h) it was 105%.
For `O=C1Cc2cc(Nc3nc(Nc4cc(C5CC5)[nH]n4)c4ccccc4n3)ccc2N1` [compound 4di, 5-((4-((5-cyclopropyl-1G-pyrazol-3-yl)amino)quinazolin-2-yl)amino)indolin-2-one], the activity at 1 µM in data set [1] (compound 1 µM) was determined as 38.8%. The “pENSA (%) Immunofluor ecense (1 µM)” value in data set [2] turned out to be 51.1%. Also, the viability at 1 µM in data set [3] is 12.1%; in data set [4] (Homo sapiens, MCF7, 72 h), 55.4%.
In the case of `O=S(=O)(c1cccc(Cl)c1)N1CC2CC1CN2c1nc(Nc2cc(C3CC3)[nH]n2)c2ccccc2n1` (centres unmarked) [compound 15q, 2-(5-((3-chlorophenyl)sulfonyl)-2,5-diazabicyclo[2.2.1]heptan-2-yl)-M-(5-cyclopropyl-1G-pyrazol-3-yl)quinazolin-4-amine], in data set [1], the IC50 is 545 nM. The activity at 1 µM in data set [1] (compound 1 µM) turned out to be 49.2%. For the same compound, the “pENSA (%) Immunofluor ecense (1 µM)” value in data set [2] came to 62.5%. Moreover, the viability at 1.1 µM in data set [3] was 108%; in data set [4] (Homo sapiens, MCF7, 72 h, read-out: Cell viability (%) WST-8, MCF7, footnote d: concentration 1.1 µM, 72 hours), 106%.
As for `O=C(O)c1ccc(Nc2nc(Nc3cc(C4CC4)[nH]n3)c3ccccc3n2)cc1` [compound 4r, 4-((4-((5-cyclopropyl-1G-pyrazol-3-yl)amino)quinazolin-2-yl)amino)benzoic acid], the activity at 1 µM in data set [1] is 56.6%. Further, in data set [2], the “pENSA (%) Immunofluor ecense (1 µM)” value amounted to 12% and the IC50 came out at 988 nM. In addition, the viability at 1 µM in data set [3] came to 84.2%. Besides, in data set [4] (Homo sapiens, MCF7, 72 h), the viability at 1 µM was 98.8%.
For the compound `CC(C)(C)OC(=O)N1C2CCC1CN(c1nc(Nc3cc(C4CC4)[nH]n3)c3ccccc3n1)C2` [19' (B), sdqs-butyl 3-(4-((5-cyclopropyl-1G-pyrazol-3-yl)amino)quinazolin-2-yl)-3,8-diazabicyclo[3.2.1]octane-8-carboxylate], the IC50 in data set [1] turned out to be 282 nM. Besides, the activity at 1 µM in data set [1] (compound 1 µM) came to 32.2%. The “pENSA (%) Immunofluor ecense (1 µM)” value in data set [2] worked out at 74.7%. Also, the viability at 1 µM in data set [3] stood at 101%; in data set [4] (Homo sapiens, MCF7, 72 h), 74.8%.

Usually IC50 stands for the concentration that inhibits the measured activity by half.
